Data published in US6743937B2, “Efficient method of synthesizing combretastatin A-4 prodrugs” (OxiGene, Inc., priority 2000, dated 2004).

What was measured:
[1] = Aqueous solubility at 25° C. as a function of pH; format: physicochemical; settings: for Aqueous solubility: 25° C., based on cis-CA4P free acid
[2] = Moisture sorption at 25° C.; format: physicochemical; settings: for Loss on drying at 1% RH / Wt. gain at 30-70% RH / Wt. gain at > 70% RH: moisture sorption at 25° C.
[3] = Solubility in organic solvents at 25° C.; format: physicochemical; settings: based on cis-CA4P free acid; for Solubility in Acetone: BQL = below quantitation limit of the HPLC method
[4] = Comparison of physical stability of Process A and Process B materials (DSC, TGA, powder-XRD, solubility); settings: based on the available data
[5] = cited from earlier work

## COc1ccc(/C=C\c2cc(OC)c(OC)c(OC)c2)cc1OP(=O)([O-])[O-].[Na+].[Na+] [Process A Product, combretastatin A-4 disodium phosphate]
[1]; pH 0.6 (adjusted with HCl)
  Aqueous solubility: 2.27 mg/mL
[1]; pH 0.8 (adjusted with HCl)
  Aqueous solubility: 0.83 mg/mL
[1]; pH 1.2 (adjusted with HCl)
  Aqueous solubility: 0.35 mg/mL
[1]; pH 5.2 (adjusted with HCl)
  Aqueous solubility: 77.4 mg/mL
[1]; pH 5.6 (adjusted with HCl)
  Aqueous solubility: 76.8 mg/mL
[1]; pH 7.1 (adjusted with HCl)
  Aqueous solubility: 169 mg/mL
[1]; pH 7.2 (adjusted with HCl)
  Aqueous solubility: 204 mg/mL
[1]; pH 7.8 (adjusted with HCl)
  Aqueous solubility: 208 mg/mL
[1]; pH 9.4 (in water)
  Aqueous solubility: 213 (in water) mg/mL
[2]
  Hygroscopicity compared between products: greater degree of hygroscopicity than the Product B product
  Loss on drying at 1% RH: 5.7%
  Wt. gain at 30-70% RH: 7-8.6%
  Wt. gain at > 70% RH: 9-30%
[3]
  Solubility in Ethanol: Ethanol = 0.18 mg/mL
  Solubility in Methanol: Methanol = 22.4 mg/mL
  Solubility in Acetone: Acetone = 0.45 mg/mL

## COc1ccc(/C=C\c2cc(OC)c(OC)c(OC)c2)cc1OP(=O)([O-])[O-].[Na+].[Na+] [Process B Product, disodium salt of combretastatin A-4 phosphate]
[1]; pH 0.8 (adjusted with HCl)
  Aqueous solubility: 0.21 mg/mL
[1]; pH 0.97 (adjusted with HCl)
  Aqueous solubility: 0.25 mg/mL
[1]; pH 2.20 (adjusted with HCl)
  Aqueous solubility: 1.61 mg/mL
[1]; pH 3.26 (adjusted with HCl)
  Aqueous solubility: 5.35 mg/mL
[1]; pH 6.96 (adjusted with HCl)
  Aqueous solubility: 34.7 mg/mL
[1]; pH 7.28 (adjusted with HCl)
  Aqueous solubility: 81.2 mg/mL
[1]; pH 7.35 (adjusted with HCl)
  Aqueous solubility: 94.3 mg/mL
[1]; pH 8.40 (adjusted with HCl)
  Aqueous solubility: 115 mg/mL
[1]; pH 9.4 (in water)
  Aqueous solubility: 118 (in water) mg/mL
[1]; both aqueous and organic solvents at 25° C.
  Solubility compared between products: consistently lower solubility than the Process A product
[2]
  Loss on drying at 1% RH: 6.6%
  Wt. gain at 30-70% RH: 3%
  Wt. gain at > 70% RH: upto 30%
[3]
  Solubility in Ethanol: Ethanol = 0.096 mg/mL
  Solubility in Methanol: Methanol = 1.77 mg/mL
  Solubility in Acetone: Acetone = BQL^$
[4]
  Physical stability compared between products: physically more stable material than Process A

## COc1ccc(/C=C\c2cc(OC)c(OC)c(OC)c2)cc1O [combretastatin A-4]
[5]
  Solubility in water: extremely poor solubility in water
